# Results reported in patent publication US20200405700A1 (priority 2019, published 2020).
# Assay: Aerodynamic particle size distribution on Next Generation Impactor (NGI)
# Assay type: physicochemical
# Settings: sample 14 sprayed by soft mist inhaler, NGI at 30 L/min
# Description: Sample 14 was sprayed by a soft mist inhaler. Aerodynamic particle size distribution of droplets of sample 14 was measured on a Next Generation Impactor (NGI). Next Generation Impactor operated at a flow rate of 30 L/min was used for determination of particle size distribution. For each of the impactor experiments, the impactor collection stages were coated with a silicone oil. The particle size distribution is expressed in terms of mass median aerodynamic diameter (MMAD) and Geometric Standard Deviation (GSD).
compound,measurement,value
"O=C(O[C@H]1C[N+]2(CCCOc3ccccc3)CCC1CC2)C(O)(c1cccs1)c1cccs1.[Br-] [Aclidinium bromide, 3(R)-(2-hydroxy-2,2-dithien-2-ylacetoxy)-1-(3-phenoxypropyl)-1-azoniabicy-clo[2.2.2]octane bromide]",MMAD (mass median aerodynamic diameter),4.49 μm
